In ChEMBL document CHEMBL5604062, “ASAP - ZIKV NS2B-NS3 protease fluorescence dose response” (2024):
Values joined by “and” are separate entries in the source; they are usually repeats but may differ in a detail not shown here. Identical values can stand only once.

molecular target: Nonstructural protein 3 (Zika virus, UniProt A0A024AXB9); assay: Functional biochemical assay to identify treatments for viral infectious disease that targets Zika NS2B-NS3 protease. Utilizing a direct enzyme activity measurement method, reading the fluorescence intensity is used to characterize the relative potency of inhibitors as IC50.; design: species or system PRVABC59
Sequence (A0A024AXB9 whole entry): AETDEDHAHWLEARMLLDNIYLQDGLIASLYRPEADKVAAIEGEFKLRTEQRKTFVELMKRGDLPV

`O=C(N[C@H](C(=O)NCc1cccc(CC(F)(F)F)c1)c1ccc(OCc2ccccc2)cc1)OCc1ccccc1` and `CS(=O)(=O)c1cccc(CNC(=O)[C@@H](NC(=O)OCc2ccccc2)c2ccc(OCc3ccccc3)cc2)c1` cannot be ordered by IC50: greater than 99.5 µM for the first, greater than 99.5 µM for the second.

First: Cc1ccc([C@@H](NC(=O)OCc2ccccc2)C(=O)Nc2cccc(CN)c2)cc1C(F)(F)F
Second: Cc1ccc([C@@H](NC(=O)OCc2ccccc2)C(=O)Nc2cccc(CN)c2)cc1C
The IC50 of the first is lower: 48.7 µM for the first, greater than 99.5 µM for the second.

`CCn1c(=O)c(N2C[C@@H](CO)[C@H](c3cncn3C)C2)nc2ccccc21` and `CCn1c(=O)c(N2C[C@H]3CN(C)CC[C@H]3C2)nc2ccccc21` cannot be ordered by IC50: greater than 99.5 µM for the first, greater than 99.5 µM for the second.

`NC(=O)c1cccnc1N1CCCN(c2nc(-c3cc(Cl)cc(Cl)c3)no2)CC1` and `NS(=O)(=O)c1cc(F)c(Cl)cc1N1CCN(c2ccnc(O)c2)CC1` cannot be ordered by IC50: greater than 99.5 µM for the first, greater than 99.5 µM for the second.

First: O=c1[nH]ncn1C1CCN(Cc2c[nH]c3ccccc23)CC1
Second: Cn1nc(C2CCN(C(=O)c3ccccc3CSc3nnc[nH]3)CC2)cc1O
The IC50 of the first is lower: 34.1 µM for the first, greater than 99.5 µM for the second. The first is the more potent here.

Compared with `Cc1cc(C)c([C@@H](NC(=O)OCc2ccccc2)C(=O)Nc2cccc(CN)c2)c(C)c1`, `Cc1ncccc1-c1ccc([C@@H](NC(=O)OCc2ccccc2)C(=O)Nc2cccc(CN)c2)cc1` is lower in IC50: greater than 99.5 µM for the first, 98.1 µM for the second. The second is the more potent here.

`CCn1c(=O)c(N2CC[C@H](N3CCCS3(=O)=O)C2)nc2ccccc21` and `CCn1c(=O)c(N2CC[C@H](N3CCN(C)CC3)C2)nc2ccccc21` cannot be ordered by IC50: greater than 99.5 µM for the first, greater than 99.5 µM for the second.

`CCc1cc(COc2ccc(S(=O)(=O)Nc3ccc(Cl)cc3C(=O)O)cc2)no1` and `Cc1ocnc1COc1ccc(S(=O)(=O)Nc2ccc(Cl)cc2C(=O)O)cc1` cannot be ordered by IC50: greater than 99.5 µM for the first, greater than 99.5 µM for the second.

`CCNC(=O)[C@@H](NC(=O)OCc1ccccc1)c1ccc(OCc2ccccc2)cc1` and `CC(C)(CO)NC(=O)[C@@H](NC(=O)OCc1ccccc1)c1ccc(OCc2ccccc2)cc1` cannot be ordered by IC50: greater than 99.5 µM for the first, greater than 99.5 µM for the second.

`CCn1c(=O)c(N2C[C@H]3C[C@@H](O)CC[C@H]3C2)nc2ccccc21` and `CCn1c(=O)c(N2C[C@@H]3CN(C4CCC4)C[C@@H]3C2)nc2ccccc21` cannot be ordered by IC50: greater than 99.5 µM for the first, greater than 99.5 µM for the second.

`CS(=O)(=O)NCc1ccc(CNC(=O)[C@@H](NC(=O)OCc2ccccc2)c2ccc(OCc3ccccc3)cc2)cc1` and `CN(C)Cc1ccc(CNC(=O)[C@@H](NC(=O)OCc2ccccc2)c2ccc(OCc3ccccc3)cc2)cc1` cannot be ordered by IC50: greater than 99.5 µM for the first, greater than 99.5 µM for the second.

`O=Cc1ccc(F)c(C(=O)N2CCN(C3=NCCCN3)CC2)c1` and `Cc1cc(C=O)c(O)c(C(=O)N2CC[C@H](CN(C)C)C2)c1` cannot be ordered by IC50: greater than 99.5 µM for the first, greater than 99.5 µM for the second.

`CCn1cnnc1COc1ccc(S(=O)(=O)Nc2ccc(Cl)cc2C(=O)O)cc1` and `O=C(O)c1cc(Cl)ccc1NS(=O)(=O)c1ccc(OCc2cccnn2)cc1` cannot be ordered by IC50: greater than 99.5 µM for the first, greater than 99.5 µM for the second.

`NCc1cccc(NC(=O)[C@@H](NC(=O)OCc2ccccc2)c2ccc(-c3ccc4scnc4c3)cc2)c1` and `NCc1cccc(NC(=O)[C@@H](NC(=O)OCc2ccccc2)c2ccc(-c3cccc4c3CCO4)cc2)c1` are within 1.5-fold of each other in IC50: 12.3 µM for the first, 14 µM for the second.

`CC(C)n1cc(CNC(=O)[C@@H](NC(=O)OCc2ccccc2)c2ccc(OCc3ccccc3)cc2)cn1` and `O=C(N[C@@H](C(=O)NCc1cccnc1)c1ccc(OCc2ccccc2)cc1)OCc1ccccc1` cannot be ordered by IC50: greater than 99.5 µM for the first, greater than 99.5 µM for the second.

Compared with `CN1Cc2ccc(CNC(=O)[C@@H](NC(=O)OCc3ccccc3)c3ccc(OCc4ccccc4)cc3)cc2C1`, `O=C(N[C@H](C(=O)NCc1ccc(F)cc1)c1ccc(OCc2ccccc2)cc1)OCc1ccccc1` is higher in IC50: 72.4 µM for the first, greater than 99.5 µM for the second. The first is the more potent here.

`CCn1c(=O)c(N2CC3(CCC3)C[C@@H]2C)nc2ccccc21` and `CCn1c(=O)c(N2CC[C@]3(CCCN(C)C3)C2)nc2ccccc21` cannot be ordered by IC50: greater than 99.5 µM for the first, greater than 99.5 µM for the second.

`COC(=O)[C@@H](C)NC(=O)c1cc(Cl)ccc1NS(=O)(=O)c1ccc(Oc2ccccc2Cl)cc1` and `O=C(Nc1cccnc1)c1cc(Cl)ccc1NS(=O)(=O)c1ccc(Oc2ccccc2Cl)cc1` cannot be ordered by IC50: greater than 99.5 µM for the first, greater than 99.5 µM for the second.

`O=C(O)c1cc(Cl)ccc1CNS(=O)(=O)c1ccc(Oc2ccccc2Cl)cc1` and `O=C(c1cc(Cl)ccc1NS(=O)(=O)c1ccc(Oc2ccccc2Cl)cc1)N1CCNCC1` cannot be ordered by IC50: greater than 99.5 µM for the first, greater than 99.5 µM for the second.

`CCn1c(=O)c(N2C[C@@H]3CS(=O)(=O)C[C@@H]3C2)nc2ccccc21` and `CCn1c(=O)c(N2C[C@H]3COC(C)(C)OC[C@H]3C2)nc2ccccc21` cannot be ordered by IC50: greater than 99.5 µM for the first, greater than 99.5 µM for the second.

`COc1cncc(CNC(=O)[C@@H](NC(=O)OCc2ccccc2)c2ccc(OCc3ccccc3)cc2)c1` and `O=C(N[C@@H](C(=O)NCc1ccncc1)c1ccc(OCc2ccccc2)cc1)OCc1ccccc1` cannot be ordered by IC50: greater than 99.5 µM for the first, greater than 99.5 µM for the second.

`CCn1c(=O)c(N2CC[C@@H](CN3CCCCC3)C2)nc2ccccc21` and `CCn1c(=O)c(N2CC(S(=O)(=O)N3CCCC3)C2)nc2ccccc21` cannot be ordered by IC50: greater than 99.5 µM for the first, greater than 99.5 µM for the second.

`O=C(N[C@@H](C(=O)Nc1ccncc1)c1ccc(OCc2ccccc2)cc1)OCc1ccccc1` and `O=C(N[C@@H](C(=O)Nc1cccnc1)c1ccc(OCc2ccccc2)cc1)OCc1ccccc1` cannot be ordered by IC50: greater than 99.5 µM for the first, greater than 99.5 µM for the second.

Going from `O=C(O)c1cc(Cl)ccc1NS(=O)(=O)c1ccc(OCc2ccccn2)cc1` to `C[C@@H](Oc1ccc(S(=O)(=O)Nc2ccc(Cl)cc2C(=O)O)cc1)c1ccccc1F`, the IC50 falls from greater than 99.5 µM to 25.1 µM.

`CC(C)(C)OC(=O)N1C[C@@H](O)[C@H](c2c[nH]c3ccccc23)C1` and `CCn1c(=O)c(N2C[C@@H]3[C@H](C2)[C@H]3C(=O)OC)nc2ccccc21` cannot be ordered by IC50: greater than 99.5 µM for the first, greater than 99.5 µM for the second.

`O=C(O)Cn1ccnc(N2CC[C@@H](CO)C2)c1=O` and `CCn1cc(C(=O)O)nc(N2CC[C@@H](CO)C2)c1=O` cannot be ordered by IC50: greater than 99.5 µM for the first, greater than 99.5 µM for the second.

`CN1CCc2ccc(C(=O)N3CCNc4ccccc4C3)cc2C1` and `CN(C)[C@H]1CCc2cc(-c3cccc(N4CCNC4=O)c3)ccc2NC1` cannot be ordered by IC50: greater than 99.5 µM for the first, greater than 99.5 µM for the second.

`NS(=O)(=O)c1ccc(N2CCC=C(c3cccc(O)c3)C2)c2ncccc12` and `O=C(O)c1ncc(F)cc1NS(=O)(=O)c1ccc(Oc2ccccc2Cl)cc1` cannot be ordered by IC50: greater than 99.5 µM for the first, greater than 99.5 µM for the second.

`CCn1c(=O)c(N2C[C@@H]3CCO[C@]3(COC)C2)nc2ccccc21` and `CCn1c(=O)c(N2C[C@H]3OCCN(C(C)=O)[C@H]3C2)nc2ccccc21` cannot be ordered by IC50: greater than 99.5 µM for the first, greater than 99.5 µM for the second.

`CCn1c(=O)c(N2CCC[C@H]2c2noc(C)n2)nc2ccccc21` and `CCn1c(=O)c(N2CCC[C@H]2c2ncccn2)nc2ccccc21` cannot be ordered by IC50: greater than 99.5 µM for the first, greater than 99.5 µM for the second.

`CN(C)Cc1ccccc1CNC(=O)[C@@H](NC(=O)OCc1ccccc1)c1ccc(OCc2ccccc2)cc1` and `CN(C)Cc1cc(CNC(=O)[C@@H](NC(=O)OCc2ccccc2)c2ccc(OCc3ccccc3)cc2)ccc1F` cannot be ordered by IC50: greater than 99.5 µM for the first, greater than 99.5 µM for the second.

`CN(C)Cc1cncc(NC(=O)[C@@H](NC(=O)OCc2ccccc2)c2ccc(OCc3ccccc3)cc2)c1` and `CN(C)C(=O)[C@@H](NC(=O)OCc1ccccc1)c1ccc(OCc2ccccc2)cc1` cannot be ordered by IC50: greater than 99.5 µM for the first, greater than 99.5 µM for the second.

`CCn1c(=O)c(N2CC[C@@]3(COC(=O)N3)C2)nc2ccccc21` and `CCn1c(=O)c(N2CC[C@@]3(CCCN3C)C2)nc2ccccc21` cannot be ordered by IC50: greater than 99.5 µM for the first, greater than 99.5 µM for the second.

`CN1CCN(Cc2ccccc2CNC(=O)[C@@H](NC(=O)OCc2ccccc2)c2ccc(OCc3ccccc3)cc2)CC1` and `CN1CCN(Cc2cccc(CNC(=O)[C@@H](NC(=O)OCc3ccccc3)c3ccc(OCc4ccccc4)cc3)c2)CC1` cannot be ordered by IC50: greater than 99.5 µM for the first, greater than 99.5 µM for the second.

`Cc1ccc2c(c1)CN(C(=O)c1ccc(C3(CN)CC3)cc1)C(C)(C)C2` and `Cc1cnn(-c2cccc(-c3cccc(C4(CN)CC4)c3)c2)c1` cannot be ordered by IC50: greater than 99.5 µM for the first, greater than 99.5 µM for the second.

Going from `NCc1cccc(NC(=O)[C@@H](NC(=O)OCc2ccccc2)c2ccc(C3=CCCOC3)cc2)c1` to `CC(C)(C)c1ncc(-c2ccc([C@@H](NC(=O)OCc3ccccc3)C(=O)Nc3cccc(CN)c3)cc2)o1`, the IC50 falls from 68.7 µM to 36.3 µM (1.9-fold).

`CN1CC[C@H](C2CCN(S(=O)(=O)c3cc(F)cc(C(=O)O)c3)CC2)C1` and `CN1CCC(c2nc(C(F)(F)F)n3c2CN(c2cccc(C(N)=O)n2)CC3)CC1` cannot be ordered by IC50: greater than 99.5 µM for the first, greater than 99.5 µM for the second.

`CN(C)CCOc1cccc(CNC(=O)[C@@H](NC(=O)OCc2ccccc2)c2ccc(OCc3ccccc3)cc2)c1` and `O=C(N[C@@H](C(=O)NCc1cccc(CN2CCCCC2)c1)c1ccc(OCc2ccccc2)cc1)OCc1ccccc1` cannot be ordered by IC50: greater than 99.5 µM for the first, greater than 99.5 µM for the second.

`O=C(N[C@@H](C(=O)Nc1ccc2c(n1)CNC2)c1ccc(OCc2ccccc2)cc1)OCc1ccccc1` and `O=C(N[C@@H](C(=O)Nc1ccccn1)c1ccc(OCc2ccccc2)cc1)OCc1ccccc1` cannot be ordered by IC50: greater than 99.5 µM for the first, greater than 99.5 µM for the second.

`CCn1c(=O)c(N2CCC[C@H]2c2cncc(Br)c2)nc2ccccc21` and `CCn1c(=O)c(N2C[C@H]3CCCN3C(=O)[C@H]2C)nc2ccccc21` cannot be ordered by IC50: greater than 99.5 µM for the first, greater than 99.5 µM for the second.

`O=C(N[C@@H](C(=O)NCc1c[nH]cn1)c1ccc(OCc2ccccc2)cc1)OCc1ccccc1` and `O=C(N[C@@H](C(=O)NC1CCCCC1)c1ccc(OCc2ccccc2)cc1)OCc1ccccc1` cannot be ordered by IC50: greater than 99.5 µM for the first, greater than 99.5 µM for the second.

`CCn1c(=O)c(N2CC[C@H](NC(=O)NC3CC3)C2)nc2ccccc21` and `CCn1c(=O)c(N2CC[C@@]23CCN(C)C3)nc2ccccc21` cannot be ordered by IC50: greater than 99.5 µM for the first, greater than 99.5 µM for the second.

First: CN1CCc2ncc(NC(=O)[C@@H](NC(=O)OCc3ccccc3)c3ccc(OCc4ccccc4)cc3)cc2C1
Second: NCc1cccc(NC(=O)[C@@H](NC(=O)OCc2ccccc2)c2ccc(OCc3ccncc3)cc2)c1
The IC50 of the first is higher: greater than 99.5 µM for the first, 90 µM for the second. The second is the more potent here.

`OCc1ccc(Cl)c(N2CCN(c3ccc4[nH]cnc4c3)CC2)n1` and `C[C@@H]1c2cccnc2CCN1Cc1cccc(CN(C)C)c1` cannot be ordered by IC50: greater than 99.5 µM for the first, greater than 99.5 µM for the second.

Going from `CC(C)c1cnc(COc2ccc(S(=O)(=O)Nc3ccc(Cl)cc3C(=O)O)cc2)o1` to `O=C(O)c1cc(Cl)c(F)cc1NS(=O)(=O)c1ccc(Oc2ccccc2)cc1`, the IC50 falls from greater than 99.5 µM to 30.3 µM.

Compared with `O=C(N[C@@H](C(=O)NCc1ccc(CN2CCCC2)cc1)c1ccc(OCc2ccccc2)cc1)OCc1ccccc1`, `NCc1cccc(NC(=O)[C@H]2c3ccc(Br)cc3CCN2C(=O)OCc2ccccc2)c1` is lower in IC50: greater than 99.5 µM for the first, 53.8 µM for the second. The second is the more potent here.

Compound `NCc1ccccc1C1CCN(C(=O)[C@H]2CCN3CC[C@H]2C3)CC1` has an IC50 greater than 99.5 µM.

`CCOCCNC(=O)c1cc(Cl)ccc1NS(=O)(=O)c1ccc(Oc2ccccc2Cl)cc1` was tested, and the IC50 was 90.4 µM and > 99.5 µM.
With `NCc1cccc(NC(=O)[C@@H](NC(=O)OCc2ccccc2)c2ccc(-c3ccc4cn[nH]c4c3)cc2)c1` the IC50 was 6.07 µM and 5.74 µM.
In the case of `NCc1cccc(NC(=O)[C@@H](NC(=O)OCc2ccccc2)c2ccc(-c3cccc(F)c3)cc2)c1`, the IC50 is reported as 7.19 µM and 6.8 µM.
